Data from US11319347B2, “Peptide compound and method for producing same, composition for screening use, and method for selecting peptide compound” (FUJIFILM Corporation, priority 2017, dated 2022).
Starred links: 1 amine or outer side, 2 acyl side, 3 side chain; linkers in the order of their positions; H or OH if unused. Positions of bridges follow the written chain, without caps; N, C: chain ends. Non-standard residues stand in square brackets, D forms with d. Residues, ends and D or L forms follow the SMILES beside them. Phe(3-(4R-CO-2-thiazolinyl)) = O=C([C@H](Cc1cccc(C2=N[C@H](C(=O)[*:3])CS2)c1)N[*:1])[*:2]; dCha = N[C@H](CC1CCCCC1)C(=O)O; Nle = CCCC[C@H](N)C(=O)O

Assay: Membrane permeability of synthesized cyclic peptides by PAMPA (Measurement Method A: 1 μmol/L; Method B: 10 μmol/L)
Format: in vitro ADME
Conditions: Measurement method A, 25° C., 4 hours
Description: Evaluation of membrane permeability of synthesized cyclic peptide by PAMPA method In order to compare and examine the membrane permeability of the synthesized cyclic peptide, parallel artificial membrane permeability assay (PAMPA) was carried out.
An artificial phospholipid membrane was produced by adding 5 μL of a phospholipid organic solvent solution consisting of L-α-phosphatidylcholine (Avanti Polar Lipids, Inc., Cat. 840051P, 1.67%), 1,2-dioleoyl-sn-glycero-3-phospho-L-serine (Avanti Polar Lipids, Inc., Cat. 840035P, 0.33%), and n-dodecane special grade (Wako Pure Chemical Industries, Ltd., 047-21612)/1-octanol reagent special grade (Kanto Chemical Co., Inc., Cat. 31013-08)=10:1 to Filter Plate (Merck Millipore Corporation, Cat. MAIPN4550).
475 μL of 50 mmol/L potassium phosphate buffer (KPB, pH 7.4 or pH 6.5) was added to 25 μL of a DMSO solution containing the compound at a concentration of 20 μmol/L, so that the compound was diluted to a final concentration of 1 μmol/L. 300 μL of the compound solution was added to the lower side (donor side) of PAMPA 96-well plate (Filter Plate (Merck Millipore Corporation, Cat. MAIPN4550)) with an artificial phospholipid membrane being interposed therebetween. 200 μL of 5% DMSO KPB (pH 7.4) was added to the upper side (acceptor side) with the artificial phospholipid membrane being interposed therebetween. A permeation test through an artificial phospholipid membrane was carried out at 25° C. for 4 hours. The compound concentration in the solution in the donor plate and the acceptor plate was measured by LC/MS/MS, and the membrane permeation rate (Pe) of the compound was calculated from the following formula, assuming that C0 is an initial compound concentration in donor solution, t is a test time, A is a membrane filter area=0.3 cm^2, VD is a donor solution amount=300 μL, VA is an acceptor solution amount=200 μL, and CD(t) is a compound concentration in donor solution at time t, CA(t) is a compound concentration in acceptor solution at time t, and Cequilibrium=[CD(t)*VD+CA(t)*VA]/(VD+VA).
475 μL of 50 mmol/L potassium phosphate buffer (KPB, pH 7.4 or pH 6.5) was added to 25 μL of a DMSO solution containing the compound at a concentration of […], so that the compound was diluted to a final concentration of 10 μmol/L. The compound solution was added 300 μL each to the lower side (donor side) of an artificial phospholipid membrane of PAMPA 96-well plate (Filter Plate (Merck Millipore Corporation, Cat. MAIPN4550)). 200 μL of 5% DMSO KPB (pH 7.4) was added to the upper side (acceptor side) with the artificial phospholipid membrane being interposed therebetween. A permeation test through an artificial phospholipid membrane was carried out at 25° C. for 4 hours. The compound concentration in the solution in the donor plate and the acceptor plate was measured by LC/MS/MS, and the membrane permeation rate (Pe) of the compound was calculated from the following formula, assuming that Co is an initial compound concentration in donor solution, t is a test time, A is a membrane filter area=0.3 cm^2, VD is a donor solution amount=300 μL, VA is an acceptor solution amount=200 μL, and CD(t) is a compound concentration in donor solution at time t, CA(t) is a compound concentration in acceptor solution at time t, and Cequilibrium=[CD(t)*VD+CA(t)*VA]/(VD+VA).
The membrane permeability (Pe(10^−6 cm/s)) obtained by this method is described in the following table.
Evaluation standards are as follows.

## N=C(N)NCCC[C@@H]1NC(=O)[C@H](Cc2c[nH]c3ccccc23)NC(=O)[C@@H](CC2CCCCC2)NC(=O)[C@@H]2CCCN2C(=O)[C@@H]2CSC(=N2)C2=Cc3ccc(cc3S2)C[C@@H](C(N)=O)NC1=O [2-2]
  Pe(10^−6 cm/sec): +++ (0.5<Pe (10^−6 cm/s))

## N=C(N)NCCC[C@@H]1NC(=O)[C@H](Cc2c[nH]c3ccccc23)NC(=O)[C@@H](CC2CCCCC2)NC(=O)[C@@H]2CCCN2C(=O)[C@@H]2CSC(=N2)c2cnc3cc(ccc3c2)C[C@@H](C(N)=O)NC1=O [2-4]
  Pe(10^−6 cm/sec): +++ (0.5<Pe (10^−6 cm/s))

## N=C(N)NCCC[C@@H]1NC(=O)[C@H](Cc2c[nH]c3ccccc23)NC(=O)[C@@H](CC2CCCCC2)NC(=O)[C@@H]2CCCN2C(=O)[C@@H]2CSC(=N2)c2sccc2C[C@@H](C(N)=O)NC1=O [2-17]
  Pe(10^−6 cm/sec): +++ (0.5<Pe (10^−6 cm/s))

## N=C(N)NCCC[C@@H]1NC(=O)[C@H](Cc2c[nH]c3ccccc23)NC(=O)[C@@H](CC2CCCCC2)NC(=O)[C@@H]2CCCN2C(=O)[C@@H]2CSC(=N2)c2ccc(cn2)C[C@@H](C(N)=O)NC1=O [3-1]
  Pe(10^−6 cm/sec): +++ (0.5<Pe (10^−6 cm/s))

## N=C(N)NCCC[C@@H]1NC(=O)[C@H](Cc2c[nH]c3ccccc23)NC(=O)[C@@H](CC2CCCCC2)NC(=O)[C@@H]2CCCN2C(=O)[C@@H]2CSC(=N2)C[C@@H](C(N)=O)NC1=O [3-5]
  Pe(10^−6 cm/sec): ++ (0.2<Pe (10^−6 cm/s)≤0.5)

## NC(=O)[C@@H]1Cc2csc(c2)C2=N[C@@H](CCS2)C(=O)N[C@H](Cc2ccc(O)cc2)C(=O)NCC(=O)NCC(=O)N[C@H](Cc2ccccc2)C(=O)N1 [4-2]
  Pe(10^−6 cm/sec): +++ (0.5<Pe (10^−6 cm/s))

## NC(=O)[C@@H]1Cc2csc(c2)C2=N[C@@H](CS2)C(=O)N[C@H](Cc2ccc(O)cc2)C(=O)NCC(=O)NCC(=O)N[C@H](Cc2ccccc2)C(=O)N1 [4-3]
  Pe(10^−6 cm/sec): +++ (0.5<Pe (10^−6 cm/s))

## CC(C)C[C@@H]1NC(=O)[C@@H](C(C)C)NC(=O)[C@@H]2CSC(=N2)c2cc(cs2)C[C@@H](C(N)=O)NC(=O)[C@@H](CCC(=O)O)NC(=O)[C@@H](Cc2c[nH]c3ccccc23)NC1=O [4-4]
  Pe(10^−6 cm/sec): ++ (0.2<Pe (10^−6 cm/s)≤0.5)

## C[C@@H](O)[C@@H]1NC(=O)[C@H](CCCCN)NC(=O)[C@@H](Cc2c[nH]c3ccccc23)NC(=O)[C@H](Cc2ccccc2)NC(=O)[C@@H]2CSC(=N2)c2cc(cs2)C[C@@H](C(N)=O)NC1=O [4-6]
  Pe(10^−6 cm/sec): + (0.01<Pe (10^−6 cm/s)≤0.2)

## CCCC[C@@H]1NC(=O)[C@H](CCCCN)NC(=O)C(CC(C)C)NC(=O)[C@H](CC(C)C)NC(=O)[C@@H]2CSC(=N2)c2cc(cs2)C[C@@H](C(N)=O)NC(=O)C(Cc2ccccc2)NC(=O)[C@H](C)NC(=O)[C@H](C)NC(=O)[C@@H]2CCCN2C1=O (some centres unmarked) [4-8]
  Pe(10^−6 cm/sec): ++ (0.2<Pe (10^−6 cm/s)≤0.5)

## CCCC[C@@H]1NC(=O)[C@H](CCCCN)NC(=O)C(CC(C)C)NC(=O)[C@H](CC(C)C)NC(=O)[C@@H]2CSC(=N2)c2cc(cs2)C[C@@H](C(N)=O)NC(=O)C(Cc2ccccc2)NC(=O)[C@H](CO)NC(=O)[C@H](C)NC(=O)[C@@H]2CCCN2C1=O (some centres unmarked) [4-9]
  Pe(10^−6 cm/sec): + (0.01<Pe (10^−6 cm/s)≤0.2)

## CC(C)C[C@@H]1NC(=O)[C@@H](C(C)C)NC(=O)[C@@H]2CSC(=N2)c2cccc(c2)C[C@@H](C(N)=O)NC(=O)[C@@H](CCC(=O)O)NC(=O)[C@@H](Cc2c[nH]c3ccccc23)NC1=O [5-1] ([dV]L[dW][dE][Phe(3-(4R-CO-2-thiazolinyl))]-NH2; lactam N-5)
  Pe(10^−6 cm/sec): +++ (0.5<Pe (10^−6 cm/s))

## C[C@@H]1NC(=O)CSC[C@@H](C(N)=O)NC(=O)[C@@H](Cc2ccccc2)NC(=O)CNC(=O)CNC(=O)[C@@H](Cc2ccc(O)cc2)NC1=O [7-2] ({CH2CO}-A[dY]GG[dF]C-NH2; thioether N-6)
  Pe(10^−6 cm/sec): + (0.01<Pe (10^−6 cm/s)≤0.2)

## C[C@@H]1NC(=O)CSC[C@@H](C(N)=O)NC(=O)[C@H]([C@@H](C)O)NC(=O)[C@H](CCCCN)NC(=O)[C@@H](Cc2c[nH]c3ccccc23)NC(=O)[C@H](Cc2ccccc2)NC1=O [7-3] ({CH2CO}-AF[dW]KTC-NH2; thioether N-6)
  Pe(10^−6 cm/sec): − (0.01≤Pe (10^−6 cm/s))

## CC(C)C[C@@H]1NC(=O)[C@@H](C(C)C)NC(=O)[C@H](C)NC(=O)CSC[C@@H](C(N)=O)NC(=O)[C@@H](CCC(=O)O)NC(=O)[C@@H](Cc2c[nH]c3ccccc23)NC1=O [7-4] ({CH2CO}-A[dV]L[dW][dE]C-NH2; thioether N-6)
  Pe(10^−6 cm/sec): + (0.01<Pe (10^−6 cm/s)≤0.2)

## CCCC[C@@H]1NC(=O)[C@H](CCCCN)NC(=O)[C@H](CC(C)C)NC(=O)[C@H](CC(C)C)NC(=O)[C@H](C)NC(=O)CSC[C@@H](C(N)=O)NC(=O)[C@H](Cc2ccccc2)NC(=O)[C@H](C)NC(=O)[C@H](C)NC(=O)[C@@H]2CCCN2C1=O [7-5] ({CH2CO}-ALLK[Nle]PAAFC-NH2; thioether N-10)
  Pe(10^−6 cm/sec): Below the limit

## CCCC[C@@H]1NC(=O)[C@H](CCCCN)NC(=O)[C@H](CC(C)C)NC(=O)[C@H](CC(C)C)NC(=O)[C@H](C)NC(=O)CSC[C@@H](C(N)=O)NC(=O)[C@H](Cc2ccccc2)NC(=O)[C@H](CO)NC(=O)[C@H](C)NC(=O)[C@@H]2CCCN2C1=O [7-6] ({CH2CO}-ALLK[Nle]PASFC-NH2; thioether N-10)
  Pe(10^−6 cm/sec): Below the limit

## C[C@@H]1NC(=O)CC[C@@H](C(N)=O)NC(=O)[C@H](CCCNC(=N)N)NC(=O)[C@H](Cc2c[nH]c3ccccc23)NC(=O)[C@@H](CC2CCCCC2)NC(=O)[C@@H]2CCCN2C1=O [8-1] (AP[dCha]WRE-NH2; lactam N-6)
  Pe(10^−6 cm/sec): + (0.01<Pe (10^−6 cm/s)≤0.2)

## C[C@@H]1NC(=O)CC[C@@H](C(N)=O)NC(=O)[C@@H](Cc2ccccc2)NC(=O)CNC(=O)CNC(=O)[C@@H](Cc2ccc(O)cc2)NC1=O [8-2] (A[dY]GG[dF]E-NH2; lactam N-6)
  Pe(10^−6 cm/sec): + (0.01<Pe (10^−6 cm/s)≤0.2)

## CC(C)C[C@@H]1NC(=O)[C@@H](C(C)C)NC(=O)[C@H](C)NC(=O)CC[C@@H](C(N)=O)NC(=O)[C@@H](CCC(=O)O)NC(=O)[C@@H](Cc2c[nH]c3ccccc23)NC1=O [8-3] (A[dV]L[dW][dE]E-NH2; lactam N-6)
  Pe(10^−6 cm/sec): − (0.01≤Pe (10^−6 cm/s))

## CC(=O)N[C@H]1CSSC[C@@H](C(N)=O)NC(=O)[C@@H](CCC(=O)O)NC(=O)[C@@H](Cc2c[nH]c3ccccc23)NC(=O)[C@H](CC(C)C)NC(=O)[C@@H](C(C)C)NC1=O [9-2] (Ac-C[dV]L[dW][dE]C-NH2; disulfide 1-6)
  Pe(10^−6 cm/sec): + (0.01<Pe (10^−6 cm/s)≤0.2)

## CC(=O)N[C@H]1CSSC[C@@H](C(N)=O)NC(=O)[C@H]([C@@H](C)O)NC(=O)[C@H](CCCCN)NC(=O)[C@@H](Cc2c[nH]c3ccccc23)NC(=O)[C@H](Cc2ccccc2)NC1=O [9-3] (Ac-CF[dW]KTC-NH2; disulfide 1-6)
  Pe(10^−6 cm/sec): Below the limit

## CCCC[C@@H]1NC(=O)[C@H](CCCCN)NC(=O)[C@H](CC(C)C)NC(=O)[C@H](CC(C)C)NC(=O)[C@@H](NC(C)=O)CSSC[C@@H](C(N)=O)NC(=O)[C@H](Cc2ccccc2)NC(=O)[C@H](C)NC(=O)[C@H](C)NC(=O)[C@@H]2CCCN2C1=O [9-4] (Ac-CLLK[Nle]PAAFC-NH2; disulfide 1-10)
  Pe(10^−6 cm/sec): Below the limit
